Measurements: patent US10738072B1, “Nucleotide analogues” (Singular Genomics Systems, Inc., priority 2018, dated 2020)

Target: T1, modified thermophilic polymerase (Therminator 3, from New England BioLabs) (Thermococcus sp., UniProt Q56366, D141A/E143A/L408S/P410V/Y409A)
T1 construct: purchased New England BioLabs
Experiment: Incorporation of 3′-terminated nucleotides by a modified thermophilic polymerase
Format: biochemical, Thermococcus sp. 9 degrees N-7
Settings: pH 8.5, nucleotides at 200 nM, 4 mM Mg, 55° C.; polymerase pre-bound to primed DNA template
From the text: Another important property of a nucleotide with a reversible terminator (e.g., 3′ cleavable moiety as described herein) is the ability to be rapidly incorporated by a DNA polymerase. Naturally occurring DNA polymerases are typically not capable of incorporating nucleotides modified with reversible terminator (e.g., 3′ cleavable moiety as described herein) at the 3′ position on the ribose of the nucleotide. As known in the art, a number of thermophilic polymerases have been engineered to enable the incorporation of nucleotides modified with 3′ terminators. […] The reaction was carried out in a buffered solution at pH 8.5, with nucleotides at 200 nM concentration, 4 mM Mg, at a temperature of 55° C. The polymerase was pre-bound to the primed DNA template. All three terminated nucleotides are efficiently incorporated by the modified DNA polymerase. The polymerase can be further modified for desired properties such as incorporation rate and accuracy.

T1 sequence (Q56366 whole entry D141A/E143A/L408S/Y409A/P410V): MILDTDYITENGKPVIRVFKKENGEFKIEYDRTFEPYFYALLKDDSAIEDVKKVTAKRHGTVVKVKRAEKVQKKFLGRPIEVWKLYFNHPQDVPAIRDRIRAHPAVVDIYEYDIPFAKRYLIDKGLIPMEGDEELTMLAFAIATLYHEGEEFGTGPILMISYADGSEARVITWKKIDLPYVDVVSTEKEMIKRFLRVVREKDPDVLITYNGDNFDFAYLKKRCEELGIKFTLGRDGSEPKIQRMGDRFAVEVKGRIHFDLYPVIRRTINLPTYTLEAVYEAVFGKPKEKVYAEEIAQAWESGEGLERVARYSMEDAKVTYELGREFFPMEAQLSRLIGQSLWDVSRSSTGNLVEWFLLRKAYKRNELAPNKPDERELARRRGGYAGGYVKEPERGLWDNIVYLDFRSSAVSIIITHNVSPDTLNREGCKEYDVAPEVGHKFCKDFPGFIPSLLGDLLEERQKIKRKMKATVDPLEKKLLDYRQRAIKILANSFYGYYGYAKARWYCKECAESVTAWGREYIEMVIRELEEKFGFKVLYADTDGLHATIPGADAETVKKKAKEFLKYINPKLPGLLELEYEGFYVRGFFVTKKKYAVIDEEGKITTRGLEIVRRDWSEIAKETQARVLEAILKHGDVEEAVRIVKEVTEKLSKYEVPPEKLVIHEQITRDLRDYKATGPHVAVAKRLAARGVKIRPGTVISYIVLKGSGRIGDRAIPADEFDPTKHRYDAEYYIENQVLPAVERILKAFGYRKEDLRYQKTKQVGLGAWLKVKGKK

## CSSCOC1CC(n2cc(C)c(=O)[nH]c2=O)OC1COP(=O)(O)OP(=O)(O)OP(=O)(O)O (stereo not shown) [RT #1, 3′O—CH2—S—S—CH3]
  Incorporation half-time: 14 ± 3 s
